# Assay results from patent US20100068150A1, “Selective Caspase Inhibitors” (The Board of Trustees of the Leland Stanford Junior …, priority 2006, published 2010).
# Entries after “also recorded” stand apart in the source; their conditions may differ.
# Legend:
# [1] = system: mature downstream caspases (17-22 kDa) in 293 extracts; assay: Intrinsic apoptosis assay in 293 extracts with AB06, KMB01 labeling of mature downstream caspases; format: biochemical; details: AB06 added at the same time as cytochrome c/dATP
# Description: FIGS. 6 A-E illustrate that full-length active caspase-7 has unique inhibitor specificity and is processed to mature forms by downstream executioner caspases. (A) The caspase-3 specific inhibitor causes accumulation of a catalytically active full-length form of caspase-7. Cytosolic extracts from 293 cells were activated with cytochrome c/dATP for the indicated times followed by labeling with KMB01 (left panel) and western blotting with a caspase-7 specific antibody (right panel) as in FIG. 5A. […] (B) The exact same experiment as (A) except extracts from MCF-7 cells were used in place of 293 extracts. (**) indicates forms of caspase-7 that are likely a result of the alternative transcription start site at methionine-45 (C) Quantification of the relative activity of FL-C7 in uninhibited 293 extracts (from FIG. 5A), AB06 treated 293 extracts (from (A)) and uninhibited MCF-7 extracts (from (B)) (D) Inhibitor specificity of full-length and processed forms of caspase-7. Extracts (293) were activated for 5 min with cytochrome c/dATP and then incubated with NP-capped AOMK inhibitors containing the indicated primary amino acid sequences for 5 minutes before KMB01 was added and allowed to label residual caspase active sites for 30 minutes. Samples were analyzed by SDS-PAGE followed by biotin blotting using strepavidin-HRP (left panel) or western blotting for caspase-7 (right panel). […]
# [2] = system: endogenous caspases in intact Jurkat cells; assay: Direct labeling of endogenous caspase activity in live Jurkat cells; format: cell-based; details: anti-Fas or etoposide 15 h, probe 2 h; KMB01, bAB19 10 μM; bAB06, bAB13 1 μM
# [3] = system: caspase-3, caspase-6, caspase-7, caspase-8, caspase-9; details: Kato et al., 2005; cited from earlier work
Compound,KMB01 labeling of mature downstream caspases [1],labeling of endogenous caspases in intact cells [2],labeling of caspases by probe [3]
"Cc1cccc(C)c1C(=O)OCC(=O)[C@H](CC(=O)O)NC(=O)[C@@H](NC(=O)[C@H](Cc1ccncc1)NC(=O)[C@H](CC(=O)O)NC(=O)Cc1ccc(O)c([N+](=O)[O-])c1)C(C)C [AB06, Np-D-3-V-D-DMBA]",completely blocked,–,–
"Bio-EVD-AOMK [KMB01, reference compound]",–,robust labeling of downstream caspases-3 and 7; also recorded: did not show labeling of caspase-9,"robust labeling of caspase-9 as well as caspase-3, caspase-7 and caspase-8"
